Experiments:
[1] = target: Tyrosine-protein kinase Lck (Homo sapiens, UniProt P06239); experiment: Inhibition of LCK
[2] = target: Mitogen-activated protein kinase 14 (Homo sapiens, UniProt Q16539); experiment: Inhibition of p38alpha
Blood = experiment: Inhibition of TNFalpha-induced IL1-beta production in human whole blood after 2 to 5 hrs by ELISA; assay type: functional, tissue-based
[3] = Plasma protein binding in Hanover-Wistar rat by untrafiltration method; assay type: ADME, cell-free; conditions: read-out: PPB (converted)
[4] = Volume of distribution at steady state in Beagle dog at 10 mg/kg, iv; assay type: ADME, organism-based, Canis lupus familiaris; parameters: dose 10 mg/kg, route intravenous; conditions: in vivo, read-out: Vdss
[5] = Plasma protein binding in Beagle dog by untrafiltration method; assay type: ADME, cell-free, Canis lupus familiaris; conditions: read-out: PPB (converted)
[6] = Oral bioavailability in Beagle dog at 10 mg/kg; assay type: ADME, organism-based, Canis lupus familiaris; conditions: in vivo
[7] = AUC (infinity) in Beagle dog at 10 mg/kg, po; assay type: ADME, organism-based, Canis lupus familiaris; parameters: time infinity, dose 10 mg/kg, route oral; conditions: plasma
[8] = Cmax in Beagle dog at 10 mg/kg, po; assay type: ADME, organism-based, Canis lupus familiaris; parameters: dose 10 mg/kg, route oral; conditions: in vivo
[9] = AUC (infinity) in Hanover-Wistar rat at 10 mg/kg, po; assay type: ADME, organism-based; parameters: dose 10 mg/kg, route oral, time infinity; conditions: plasma
[10] = Half life in Beagle dog at 10 mg/kg, po; assay type: ADME, organism-based, Canis lupus familiaris; parameters: dose 10 mg/kg, route oral; conditions: in vivo
[11] = Tmax in Beagle dog at 10 mg/kg, po; assay type: ADME, organism-based, Canis lupus familiaris; parameters: dose 10 mg/kg, route oral; conditions: in vivo
[12] = Clearance in Beagle dog at 10 mg/kg, iv; assay type: ADME, organism-based, Canis lupus familiaris; parameters: dose 10 mg/kg, route intravenous; conditions: in vivo

Chain of Tyrosine-protein kinase Lck (P06239 whole entry): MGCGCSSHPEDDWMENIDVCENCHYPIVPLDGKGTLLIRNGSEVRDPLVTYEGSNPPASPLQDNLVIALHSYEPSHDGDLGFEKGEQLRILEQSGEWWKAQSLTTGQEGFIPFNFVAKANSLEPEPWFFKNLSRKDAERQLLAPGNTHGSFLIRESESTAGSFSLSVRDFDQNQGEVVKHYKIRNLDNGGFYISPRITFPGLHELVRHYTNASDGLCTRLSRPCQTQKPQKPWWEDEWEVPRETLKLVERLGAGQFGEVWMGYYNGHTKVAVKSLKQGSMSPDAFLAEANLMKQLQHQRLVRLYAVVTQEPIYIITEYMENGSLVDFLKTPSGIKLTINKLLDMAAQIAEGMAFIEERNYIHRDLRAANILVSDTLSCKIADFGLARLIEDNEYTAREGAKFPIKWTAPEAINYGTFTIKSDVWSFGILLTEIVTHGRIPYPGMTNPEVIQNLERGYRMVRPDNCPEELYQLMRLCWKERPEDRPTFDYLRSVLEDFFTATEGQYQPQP
Chain of Mitogen-activated protein kinase 14 (Q16539 whole entry): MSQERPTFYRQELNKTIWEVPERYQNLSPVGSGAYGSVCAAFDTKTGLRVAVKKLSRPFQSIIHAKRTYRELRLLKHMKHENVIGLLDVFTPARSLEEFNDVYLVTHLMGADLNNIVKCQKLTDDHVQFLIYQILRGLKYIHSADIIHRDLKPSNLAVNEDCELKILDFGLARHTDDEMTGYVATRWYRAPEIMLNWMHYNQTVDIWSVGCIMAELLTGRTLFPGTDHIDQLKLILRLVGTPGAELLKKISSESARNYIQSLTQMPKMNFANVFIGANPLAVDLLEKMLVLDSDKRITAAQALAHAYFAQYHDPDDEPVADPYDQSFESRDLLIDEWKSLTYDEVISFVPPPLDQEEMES

| Kd [1] | Kd [2] | IC50 (Blood) | Structure (SMILES) | fraction unbound [3] | Vd [4] | fraction unbound [5] | bioavailability [6] | AUC(0-inf) [7] | Cmax [8] | AUC(0-inf) [9] | half-life [10] | Tmax [11] | clearance [12] |
| --- | --- | --- | --- | --- | --- | --- | --- | --- | --- | --- | --- | --- | --- |
| 0.2 nM | 10 nM | – | CCN(CC)CCOc1ccc(Nc2ncc3c(n2)N(C)C(=O)N(c2c(Cl)cccc2Cl)C3)cc1 | – | – | – | – | – | – | – | – | – | – |
| 1800 nM | – | 85.7 nM | Cn1c(=O)c(-c2ccccc2Cl)cc2cnc(NC3CCOCC3)nc21 | – | – | – | – | – | – | – | – | – | – |
| – | – | – | Cl.Cn1c(=O)c(Oc2ccc(F)cc2F)cc2cnc(NC3CCOCC3)nc21 [R-1487 HYDROCHLORIDE] | 0.044 | 4.65 L/kg | 0.096 | 10.3% | 310 ng·h/mL | 110 ng/mL | 2350 ng·h/mL | 2.23 h | 0.5 h | 54.2 mL/min/kg |
